The values that follow come from patent US5837219A, “Labelled acyl-L-carnitine and diagnostic agent” (Japan Science and Technology Corporation, priority 1995, dated 1998).

Series [1] can be described thus: PET uptake of labelled compounds into the brain of anesthetized rhesus monkeys after intravenous administration. The series is classed as in vivo, rhesus monkey. The settings on record: i.v.; for uptake value into the brain: rhesus monkey under anesthesia, whole brain (WB 9), FIG. 1. From the text: ACN, ACM, CRN and ACC prepared in Examples 1, 3 and 5 in equal amounts were intravenously administered to rhesus monkeys under anesthesia, respectively, at intervals of two hours, and the uptake value of those labelled compounds into the brain (whole brain: WB 9) and into the temporal muscle (TEM 11) was traced with time by the use of PET. The uptake value was obtained by the following calculation: [formula]

Series [2] is described as follows: ACM uptake value in blood plasma (hematocrit tube and imaging plate), normal volunteers versus CFS patients. Format: in vivo, human (normal volunteers. The settings on record: normal n=5, CFS n=6, FIG. 6. The protocol:
(§1) Blood was sampled from the normal volunteers and the CFS patients and the ACM uptake values in the blood plasma and blood cells thereof was measured by the combined method of hematocrit tube and imaging plate.

The nature of series [3]: PET uptake of ACM into the whole brain of a normal volunteer, rest and task condition. The series is classed as in vivo, human (normal volunteer). The settings on record: i.v., FIG. 2. The protocol:
ACM synthesized in Example 3 was intravenously administered to a normal volunteer, and the uptake value of ACM into the whole brain was measured by use of PET in both the rest condition (WR 9) and task condition (calculation task, memory task: WB9-TASK).

Series [4] is described as follows: PET uptake of ACM into the whole brain, normal volunteers versus CFS patients. Format: in vivo, human (normal volunteers. The following applies: i.v., normal n=5, CFS n=6 (FIG. 3: n=5). The protocol: (§2) ACM synthesized in Example 1 was intravenously administered to normal volunteers (n=5) and CFS patients (n=6), and the ACM uptake values into the whole brain and visual cortex were measured with time by means of PET.

Series [5] can be described thus: PET uptake of ACM into the visual cortex, normal volunteers versus CFS patients. The series is classed as in vivo, human (normal volunteers. The settings on record: i.v. The protocol: as §2
Series [6] can be described thus: ACM uptake into erythrocytes and erythrocyte/blood plasma ratio (hematocrit tube and imaging plate), normal volunteers versus CFS patients. Format: in vivo, human (normal volunteers. The protocol:
as §1

SMILES strings stand for the structures. Entries after “also recorded” stand apart in the source; their conditions may differ.

For the compound `CC(=O)O[C@H](CC(=O)[O-])C[N+](C)(C)[11CH3]` [ACC, acetyl-L-carnitine with the same label], the “uptake value into the brain” value in series [1] is recorded as “not taken up into the brain almost at all”.

Take `C[N+](C)(C)C[C@@H](CC(=O)[O-])OC([11CH3])=O` [ACM, Acetyl-L-carnitine with the ^11 C-labelled secondary carbon atom of acetyl group]: the “ACM uptake value in blood plasma, course with time, normal volunteers and CFS patients” value in series [2] was “almost the same course; also recorded: no difference”. Further, in series [3] (calculation and memory task versus rest), the “uptake into the whole brain in the task condition relative to rest” value is listed as “about twice”. In series [3] (rest condition), the “uptake into the whole brain with time” value is “taken up with time even during rest condition”. Also, the “uptake value into the brain” value in series [1] is recorded as “excellent”. In addition, the “change of brain uptake with time” value in series [1] (rhesus monkey, up to 60 minutes after the administration) is reported as “almost linearly increased up to 60 minutes after the administration”. In addition, in series [4], the “increase with time in the ACM uptake value into the whole brain, CFS patients versus normal volunteers” value is “significantly lower than that in the normal volunteers”. Besides, in series [5] (FIG. 3 and FIG. 4), the “difference between CFS patients and normal volunteers in ACM uptake, visual cortex versus whole brain” value was “particularly observed in the visual cortex than in the whole brain”. The “increase with time in the ACM uptake value into the visual cortex, CFS patients versus normal volunteers” value in series [5] (normal n=5, CFS n=6, FIG. 4) is listed as “significantly lower than that in the normal volunteers”. Moreover, the “ratio erythrocyte/blood plasma of ACM uptake value, increase with time, CFS patients” value in series [6] (CFS patients n=2, FIG. 7) is listed as “inhibited in the CFS patients”. Further, the “ACM uptake value into erythrocyte, CFS patients versus normal volunteers” value in series [6] (inferred from erythrocyte/blood plasma ratio and unchanged plasma uptake) is recorded as “significantly lower than that in the normal volunteers”. Besides, the “ratio erythrocyte/blood plasma of ACM uptake value, change with time, normal subjects” value in series [6] (normal subjects n=2, FIG. 7) is “increased with time in the normal subjects”.

As for `C[11C](=O)O[C@H](CC(=O)[O-])C[N+](C)(C)C` [ACN, Acetyl-L-carnitine with ^11 C-labelled primary carbon atom of acetyl group], the “uptake value into the brain” value in series [1] is “taken up into the brain only slightly”.

As for `C[N+](C)([11CH3])C[C@H](O)CC(=O)[O-]` [CRN, L-carnitine with the ^11 C-labelled N-methyl carbon atom of carnitine, reference compound], the “uptake value into the brain” value in series [1] was “not taken up into the brain almost at all”.
